Experimental data reported in patent publication US4528190A, “GRF Analogs IV” (The Salk Institute For Biological Studies, priority 1984, dated 1985).
Square brackets hold non-standard residues; d marks the D form. Ends that are not written are not given here. Peptide text beside a SMILES is read from it. Nle = CCCC[C@H](N)C(=O)O

tested on: cells of rat pituitary glands; experiment: in vitro GH release from cultured rat pituitary cells, compared side by side with synthetic hpGRF(1-40)-OH as standard; assay type: cell-based; conditions: GH release relative to standard hGRF(1-40)-OH = 100%; equimolar concentrations; incubation 3 to 4 hours; immunoreactive GH by radioimmunoassay
Experimental: To determine the relative effectiveness of certain representative synthetic peptides to promote the release of growth hormone, in vitro assays are carried out using synthetic hpGRF(1-40)-OH as a standard in side-by-side comparison with equimolar concentrations of the representative analogs which have been synthesized. Cultures are used which include cells of rat pituitary glands removed some three to five days previously. Such cultures are considered optimal for the secretion of growth hormone and are used for the comparative testing, in the general manner described in Vale et al. Endocrinology, 91, 562-572 (1972) and as more particularly described in Vale et al. Endocrinology, 112, 1553-1555 (1983). Incubation with the substance to be tested is carried out for 3 to 4 hours, and aliquots of the culture medium are removed and processed to measure their contents in immunoreactive GH(ir GH) by a well-characterized radioimmunoassay.

Question: `CCCC[C@H](NC(=O)[C@@H](NC(=O)[C@H](CCC(=O)O)NC(=O)[C@H](Cc1c[nH]cn1)NC(=O)[C@H](CC(C)C)NC(=O)[C@H](CC(C)C)NC(=O)[C@H](CCCCN)NC(=O)[C@H](CCCNC(=N)N)NC(=O)[C@H](C)NC(=O)[C@H](Cc1ccc(O)cc1)NC(=O)[C@H](CC(C)C)NC(=O)[C@H](CCC(N)=O)NC(=O)CNC(=O)[C@@H](CC(C)C)NC(=O)[C@@H](NC(=O)[C@H](CCCNC(=N)N)NC(=O)[C@H](CCCNC(=N)N)NC(=O)[C@H](Cc1ccc(O)cc1)NC(=O)[C@H](CO)NC(=O)[C@H](CO)NC(=O)[C@@H](NC(=O)[C@H](Cc1ccccc1)NC(=O)[C@@H](NC(=O)[C@H](C)NC(=O)[C@H](CC(=O)O)NC(=O)[C@H](C)NC(=O)[C@@H](N)Cc1c[nH]cn1)[C@@H](C)CC)[C@@H](C)O)[C@@H](C)CC)[C@@H](C)CC)C(=O)N[C@@H](CC(N)=O)C(=O)N[C@@H](CCCNC(=N)N)C(N)=O` [[D-Leu^14, Nle^27]-rGRF(1-29)-NH2] (H-HADAIFTSSYRRI[dL]GQLYARKLLHEI[Nle]NR-NH2) was tested. Which Comparison % did it give?
Answer: The Comparison % was 120%.

Question: For `CCCC[C@H](NC(=O)[C@@H](NC(=O)[C@H](CCC(=O)O)NC(=O)[C@H](Cc1c[nH]cn1)NC(=O)[C@H](CC(C)C)NC(=O)[C@H](CC(C)C)NC(=O)[C@H](CCCCN)NC(=O)[C@H](CCCNC(=N)N)NC(=O)[C@H](C)NC(=O)[C@H](Cc1ccc(O)cc1)NC(=O)[C@H](CC(C)C)NC(=O)[C@H](CCC(N)=O)NC(=O)CNC(=O)[C@H](CC(C)C)NC(=O)[C@@H](NC(=O)[C@H](CCCNC(=N)N)NC(=O)[C@H](CCCNC(=N)N)NC(=O)[C@H](Cc1ccc(O)cc1)NC(=O)[C@H](CO)NC(=O)[C@H](CO)NC(=O)[C@@H](NC(=O)[C@H](Cc1ccccc1)NC(=O)[C@@H](NC(=O)[C@H](C)NC(=O)[C@H](CC(=O)O)NC(=O)[C@H](C)NC(=O)[C@@H](N)Cc1c[nH]cn1)[C@@H](C)CC)[C@@H](C)O)[C@@H](C)CC)[C@@H](C)CC)C(=O)N[C@@H](CC(N)=O)C(=O)N[C@H](CCCNC(=N)N)C(N)=O` [[Nle^27, D-Arg^29]-rGRF(1-29)-NH2] (H-HADAIFTSSYRRILGQLYARKLLHEI[Nle]N[dR]-NH2), which Comparison % is on record?
Answer: Its Comparison % is 386%.

Question: Which Comparison % does the source give for “hGRF(1-40)-OH (YADAIFTNSYRKVLGQLSARKLLQDIMSRQQGESNQERGA-OH; UniProt P01286 32-71, looked up, fragment) [synthetic human pancreatic (tumor) GH releasing factor, residues 1-40, free acid; standard for the tests, reference compound]” here?
Answer: The Comparison % was 100%.
